Tests used:
Assay in all cases: KINOMEscan
Type in all cases: binding
Settings in all cases: 35 at 1 µM; read-out: % inhibition
[1] = molecular target: T1, p38-beta (Homo sapiens, UniProt Q15759)
T1 construct: purchased Eurofins DiscoverX (KINOMEscan)
Experimental: (§1) KinomeScan Assay on 35 was performed as previously described at EuroFins DiscoverX (Fremont, CA, USA).

[2] = molecular target: T2, CDK8 (Homo sapiens, UniProt P49336)
T2 construct: purchased Eurofins DiscoverX (KINOMEscan)
Experimental: as §1

[3] = molecular target: T3, STK36 (Homo sapiens, UniProt Q9NRP7)
T3 construct: purchased Eurofins DiscoverX (KINOMEscan)
Experimental: as §1

[4] = molecular target: T4, FLT4 (Homo sapiens, UniProt P35916)
T4 construct: purchased Eurofins DiscoverX (KINOMEscan)
Experimental: as §1

[5] = molecular target: T5, ABL1(Q252H)-phosphorylated (Homo sapiens, UniProt P00519, Q252H)
T5 construct: purchased Eurofins DiscoverX (KINOMEscan)
Experimental: as §1

[6] = molecular target: T6, TNK1 (Homo sapiens, UniProt Q13470)
T6 construct: purchased Eurofins DiscoverX (KINOMEscan)
Experimental: as §1

[7] = molecular target: T7, MELK (Homo sapiens, UniProt Q14680)
T7 construct: purchased Eurofins DiscoverX (KINOMEscan)
Experimental: as §1

[8] = molecular target: T8, ADCK3 (Homo sapiens, UniProt Q8NI60)
T8 construct: purchased Eurofins DiscoverX (KINOMEscan)
Experimental: as §1

[9] = molecular target: T9, EGFR (Homo sapiens, UniProt P00533)
T9 construct: purchased Eurofins DiscoverX (KINOMEscan)
T9 sequence (P00533 25-1210): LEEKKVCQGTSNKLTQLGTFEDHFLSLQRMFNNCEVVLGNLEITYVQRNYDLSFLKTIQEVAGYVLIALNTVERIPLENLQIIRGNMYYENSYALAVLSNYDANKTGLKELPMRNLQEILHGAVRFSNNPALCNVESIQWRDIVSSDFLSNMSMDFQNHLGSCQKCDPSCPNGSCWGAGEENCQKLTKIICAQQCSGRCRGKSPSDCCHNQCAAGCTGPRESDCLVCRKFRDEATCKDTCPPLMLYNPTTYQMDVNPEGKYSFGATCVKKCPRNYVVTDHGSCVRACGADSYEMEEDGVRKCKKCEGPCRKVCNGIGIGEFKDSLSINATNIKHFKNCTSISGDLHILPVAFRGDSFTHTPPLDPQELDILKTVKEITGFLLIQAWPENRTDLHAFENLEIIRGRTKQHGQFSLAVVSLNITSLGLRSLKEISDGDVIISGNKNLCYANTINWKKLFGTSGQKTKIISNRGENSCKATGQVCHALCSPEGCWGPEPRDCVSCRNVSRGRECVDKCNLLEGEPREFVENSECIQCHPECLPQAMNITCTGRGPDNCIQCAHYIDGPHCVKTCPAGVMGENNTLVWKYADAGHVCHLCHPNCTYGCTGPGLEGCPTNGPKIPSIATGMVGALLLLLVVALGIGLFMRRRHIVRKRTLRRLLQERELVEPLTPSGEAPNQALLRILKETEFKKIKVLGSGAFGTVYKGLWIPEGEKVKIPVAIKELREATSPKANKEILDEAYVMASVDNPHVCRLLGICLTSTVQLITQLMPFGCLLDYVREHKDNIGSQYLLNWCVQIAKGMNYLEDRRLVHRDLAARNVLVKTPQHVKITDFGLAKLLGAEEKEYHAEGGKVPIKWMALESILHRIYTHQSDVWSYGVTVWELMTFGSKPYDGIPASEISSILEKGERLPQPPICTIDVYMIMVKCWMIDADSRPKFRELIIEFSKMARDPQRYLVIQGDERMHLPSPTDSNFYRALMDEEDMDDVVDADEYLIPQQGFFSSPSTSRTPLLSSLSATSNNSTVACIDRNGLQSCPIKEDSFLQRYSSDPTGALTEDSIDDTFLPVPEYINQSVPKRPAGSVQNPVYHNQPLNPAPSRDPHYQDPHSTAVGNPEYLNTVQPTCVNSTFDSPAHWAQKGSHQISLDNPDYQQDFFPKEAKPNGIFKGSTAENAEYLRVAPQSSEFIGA
Experimental: as §1

[10] = molecular target: T10, KIT (Homo sapiens, UniProt P10721)
T10 construct: purchased Eurofins DiscoverX (KINOMEscan)
Experimental: as §1

[11] = molecular target: T11, TNIK (Homo sapiens, UniProt Q9UKE5)
T11 construct: purchased Eurofins DiscoverX (KINOMEscan)
T11 sequence (Q9UKE5 whole entry): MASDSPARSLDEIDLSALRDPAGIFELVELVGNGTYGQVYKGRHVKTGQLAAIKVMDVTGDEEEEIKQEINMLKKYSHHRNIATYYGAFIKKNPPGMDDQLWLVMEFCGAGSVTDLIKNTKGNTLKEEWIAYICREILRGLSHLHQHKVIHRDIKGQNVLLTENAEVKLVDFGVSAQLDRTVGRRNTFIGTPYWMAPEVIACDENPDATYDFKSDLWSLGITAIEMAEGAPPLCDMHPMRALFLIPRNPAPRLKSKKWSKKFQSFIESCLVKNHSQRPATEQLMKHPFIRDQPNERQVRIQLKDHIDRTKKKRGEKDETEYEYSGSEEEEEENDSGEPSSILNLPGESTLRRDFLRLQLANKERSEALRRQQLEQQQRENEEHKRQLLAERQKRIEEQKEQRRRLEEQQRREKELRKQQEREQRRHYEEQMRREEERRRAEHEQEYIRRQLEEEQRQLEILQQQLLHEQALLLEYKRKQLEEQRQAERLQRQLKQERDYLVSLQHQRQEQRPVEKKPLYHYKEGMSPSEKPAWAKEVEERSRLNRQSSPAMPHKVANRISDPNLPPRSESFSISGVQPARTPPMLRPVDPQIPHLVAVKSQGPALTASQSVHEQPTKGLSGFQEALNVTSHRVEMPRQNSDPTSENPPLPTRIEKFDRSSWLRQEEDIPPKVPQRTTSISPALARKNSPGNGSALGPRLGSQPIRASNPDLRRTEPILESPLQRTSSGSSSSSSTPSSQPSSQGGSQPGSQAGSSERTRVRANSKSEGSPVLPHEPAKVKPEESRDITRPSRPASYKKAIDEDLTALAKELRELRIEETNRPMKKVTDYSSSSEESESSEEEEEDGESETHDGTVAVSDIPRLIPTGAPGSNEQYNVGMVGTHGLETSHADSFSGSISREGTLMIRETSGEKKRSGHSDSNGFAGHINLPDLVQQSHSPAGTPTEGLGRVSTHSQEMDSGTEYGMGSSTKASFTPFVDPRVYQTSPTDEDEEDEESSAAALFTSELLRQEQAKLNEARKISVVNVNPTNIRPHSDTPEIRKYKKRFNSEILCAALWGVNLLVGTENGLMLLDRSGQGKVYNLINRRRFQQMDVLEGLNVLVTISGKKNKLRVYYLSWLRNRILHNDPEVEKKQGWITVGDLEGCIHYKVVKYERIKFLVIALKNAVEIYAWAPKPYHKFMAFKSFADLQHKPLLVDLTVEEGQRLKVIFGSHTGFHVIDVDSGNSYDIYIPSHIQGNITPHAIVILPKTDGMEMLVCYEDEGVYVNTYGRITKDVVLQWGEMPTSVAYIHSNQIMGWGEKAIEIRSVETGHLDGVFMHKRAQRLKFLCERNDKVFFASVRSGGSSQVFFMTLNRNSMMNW
Experimental: as §1

[12] = molecular target: T12, ABL2 (Homo sapiens, UniProt P42684)
T12 construct: purchased Eurofins DiscoverX (KINOMEscan)
Experimental: as §1

[13] = molecular target: T13, MYLK2 (Homo sapiens, UniProt Q9H1R3)
T13 construct: purchased Eurofins DiscoverX (KINOMEscan)
Experimental: as §1

[14] = molecular target: T14, KIT(V559D,V654A) (Homo sapiens, UniProt P10721, V559D/V654A)
T14 construct: purchased Eurofins DiscoverX (KINOMEscan)
Experimental: as §1

[15] = molecular target: T15, HIPK2 (Homo sapiens, UniProt Q9H2X6)
T15 construct: purchased Eurofins DiscoverX (KINOMEscan)
Experimental: as §1

[16] = molecular target: T16, JAK1(JH1domain-catalytic) (Homo sapiens, UniProt P23458)
T16 construct: JAK1(JH1domain-catalytic); purchased Eurofins DiscoverX (KINOMEscan)
Experimental: as §1

[17] = molecular target: T17, MAST1 (Homo sapiens, UniProt Q9Y2H9)
T17 construct: purchased Eurofins DiscoverX (KINOMEscan)
Experimental: as §1

[18] = molecular target: T18, QSK (Homo sapiens, UniProt Q9Y2K2)
T18 construct: purchased Eurofins DiscoverX (KINOMEscan)
Experimental: as §1

[19] = molecular target: T19, BMPR1A (Homo sapiens, UniProt P36894)
T19 construct: purchased Eurofins DiscoverX (KINOMEscan)
Experimental: as §1

[20] = molecular target: T20, STK39 (Homo sapiens, UniProt Q9UEW8)
T20 construct: purchased Eurofins DiscoverX (KINOMEscan)
Experimental: as §1

[21] = molecular target: T21, TGFBR1 (Homo sapiens, UniProt P36897)
T21 construct: purchased Eurofins DiscoverX (KINOMEscan)
Experimental: as §1

[22] = molecular target: T22, MUSK (Homo sapiens, UniProt O15146)
T22 construct: purchased Eurofins DiscoverX (KINOMEscan)
Experimental: as §1

[23] = molecular target: T23, ABL1(F317L)-nonphosphorylated (Homo sapiens, UniProt P00519, F317L)
T23 construct: purchased Eurofins DiscoverX (KINOMEscan)
Experimental: as §1

[24] = molecular target: T24, BRAF (Homo sapiens, UniProt P15056)
T24 construct: purchased Eurofins DiscoverX (KINOMEscan)
T24 sequence (P15056 whole entry): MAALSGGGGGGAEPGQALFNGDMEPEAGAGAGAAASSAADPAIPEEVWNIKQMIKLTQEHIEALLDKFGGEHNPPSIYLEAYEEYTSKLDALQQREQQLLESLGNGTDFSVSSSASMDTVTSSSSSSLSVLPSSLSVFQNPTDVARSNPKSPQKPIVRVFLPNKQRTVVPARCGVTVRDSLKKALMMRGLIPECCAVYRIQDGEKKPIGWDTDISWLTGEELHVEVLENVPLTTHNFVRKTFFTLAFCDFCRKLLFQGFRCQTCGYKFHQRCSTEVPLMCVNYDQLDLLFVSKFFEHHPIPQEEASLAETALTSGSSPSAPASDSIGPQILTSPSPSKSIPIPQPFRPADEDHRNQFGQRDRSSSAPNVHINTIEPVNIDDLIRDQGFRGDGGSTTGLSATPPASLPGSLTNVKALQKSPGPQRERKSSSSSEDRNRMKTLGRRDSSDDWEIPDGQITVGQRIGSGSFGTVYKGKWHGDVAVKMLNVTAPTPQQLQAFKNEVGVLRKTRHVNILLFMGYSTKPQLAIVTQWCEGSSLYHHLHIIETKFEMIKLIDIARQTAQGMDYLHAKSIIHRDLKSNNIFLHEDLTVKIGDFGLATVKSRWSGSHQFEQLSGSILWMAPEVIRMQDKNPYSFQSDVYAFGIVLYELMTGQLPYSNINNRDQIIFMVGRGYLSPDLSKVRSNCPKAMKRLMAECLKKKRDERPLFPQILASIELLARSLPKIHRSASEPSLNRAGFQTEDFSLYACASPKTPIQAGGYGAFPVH
Experimental: as §1

[25] = molecular target: T25, MET (Homo sapiens, UniProt P08581)
T25 construct: purchased Eurofins DiscoverX (KINOMEscan)
Experimental: as §1

[26] = molecular target: T26, DCAMKL2 (Homo sapiens, UniProt Q8N568)
T26 construct: purchased Eurofins DiscoverX (KINOMEscan)
Experimental: as §1

[27] = molecular target: T27, BMPR1B (Homo sapiens, UniProt O00238)
T27 construct: purchased Eurofins DiscoverX (KINOMEscan)
Experimental: as §1

[28] = molecular target: T28, MAP4K5 (Homo sapiens, UniProt Q9Y4K4)
T28 construct: purchased Eurofins DiscoverX (KINOMEscan)
T28 sequence (Q9Y4K4 whole entry): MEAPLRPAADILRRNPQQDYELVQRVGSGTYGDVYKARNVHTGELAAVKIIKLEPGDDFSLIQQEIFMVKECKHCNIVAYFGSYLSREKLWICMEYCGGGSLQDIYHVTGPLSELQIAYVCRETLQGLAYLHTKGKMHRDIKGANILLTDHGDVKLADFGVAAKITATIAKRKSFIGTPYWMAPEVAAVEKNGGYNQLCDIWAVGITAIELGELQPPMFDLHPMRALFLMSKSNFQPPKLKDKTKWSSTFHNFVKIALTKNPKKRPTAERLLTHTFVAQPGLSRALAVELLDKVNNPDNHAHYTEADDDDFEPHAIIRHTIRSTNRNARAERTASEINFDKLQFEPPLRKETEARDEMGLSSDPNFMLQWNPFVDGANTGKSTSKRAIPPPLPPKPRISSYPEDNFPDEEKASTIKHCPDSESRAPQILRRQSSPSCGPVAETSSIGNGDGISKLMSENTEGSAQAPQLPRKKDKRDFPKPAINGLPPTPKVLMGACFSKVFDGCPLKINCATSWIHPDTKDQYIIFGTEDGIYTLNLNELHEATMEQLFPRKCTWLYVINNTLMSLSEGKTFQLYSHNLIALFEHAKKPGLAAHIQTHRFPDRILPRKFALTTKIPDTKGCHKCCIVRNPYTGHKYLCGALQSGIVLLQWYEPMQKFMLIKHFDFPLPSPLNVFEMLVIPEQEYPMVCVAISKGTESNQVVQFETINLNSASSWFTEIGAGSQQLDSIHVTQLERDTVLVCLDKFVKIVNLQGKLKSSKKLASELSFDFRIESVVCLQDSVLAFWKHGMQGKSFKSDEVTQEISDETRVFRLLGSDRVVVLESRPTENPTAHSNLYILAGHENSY
Experimental: as §1

[29] = molecular target: T29, CHEK2 (Homo sapiens, UniProt O96017)
T29 construct: purchased Eurofins DiscoverX (KINOMEscan)
T29 sequence (O96017 whole entry): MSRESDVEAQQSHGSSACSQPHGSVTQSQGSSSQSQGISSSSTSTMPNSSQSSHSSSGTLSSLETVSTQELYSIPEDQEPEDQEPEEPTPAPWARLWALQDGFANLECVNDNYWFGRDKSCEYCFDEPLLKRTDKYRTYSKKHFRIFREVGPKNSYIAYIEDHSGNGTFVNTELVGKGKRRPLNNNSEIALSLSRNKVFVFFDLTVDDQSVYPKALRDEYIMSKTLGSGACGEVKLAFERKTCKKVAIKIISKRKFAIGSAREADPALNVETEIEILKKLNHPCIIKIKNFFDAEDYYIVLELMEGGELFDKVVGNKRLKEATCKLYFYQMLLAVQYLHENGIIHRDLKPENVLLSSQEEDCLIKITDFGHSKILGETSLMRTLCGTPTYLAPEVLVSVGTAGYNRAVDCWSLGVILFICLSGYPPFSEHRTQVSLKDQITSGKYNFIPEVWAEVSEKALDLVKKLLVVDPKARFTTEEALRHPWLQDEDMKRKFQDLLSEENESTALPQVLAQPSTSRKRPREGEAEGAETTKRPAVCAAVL
Experimental: as §1

[30] = molecular target: T30, RIOK3 (Homo sapiens, UniProt O14730)
T30 construct: purchased Eurofins DiscoverX (KINOMEscan)
Experimental: as §1

[31] = molecular target: T31, IKK-epsilon (Homo sapiens, UniProt Q14164)
T31 construct: purchased Eurofins DiscoverX (KINOMEscan)
Experimental: as §1

[32] = molecular target: T32, ACVR1B (Homo sapiens, UniProt P36896)
T32 construct: purchased Eurofins DiscoverX (KINOMEscan)
Experimental: as §1

[33] = molecular target: T33, CSNK1G2 (Homo sapiens, UniProt P78368)
T33 construct: purchased Eurofins DiscoverX (KINOMEscan)
Experimental: as §1

[34] = molecular target: T34, PIM3 (Homo sapiens, UniProt Q86V86)
T34 construct: purchased Eurofins DiscoverX (KINOMEscan)
Experimental: as §1

[35] = molecular target: T35, RET(V804M) (Homo sapiens, UniProt P07949, V804M)
T35 construct: purchased Eurofins DiscoverX (KINOMEscan)
Experimental: as §1

[36] = molecular target: T36, PRKG1 (Homo sapiens, UniProt Q13976)
T36 construct: purchased Eurofins DiscoverX (KINOMEscan)
Experimental: as §1

[37] = molecular target: T37, JNK2 (Homo sapiens, UniProt P45984)
T37 construct: purchased Eurofins DiscoverX (KINOMEscan)
Experimental: as §1

[38] = molecular target: T38, MST4 (Homo sapiens, UniProt Q9P289)
T38 construct: purchased Eurofins DiscoverX (KINOMEscan)
Experimental: as §1

[39] = molecular target: T39, p38-gamma (Homo sapiens, UniProt P53778)
T39 construct: purchased Eurofins DiscoverX (KINOMEscan)
Experimental: as §1

[40] = molecular target: T40, MAP3K15 (Homo sapiens, UniProt Q6ZN16)
T40 construct: purchased Eurofins DiscoverX (KINOMEscan)
Experimental: as §1

[41] = molecular target: T41, CDC2L1 (Homo sapiens, UniProt P21127)
T41 construct: purchased Eurofins DiscoverX (KINOMEscan)
Experimental: as §1

[42] = molecular target: T42, YANK1 (Homo sapiens, UniProt Q8WU08)
T42 construct: purchased EuroFins DiscoverX (Fremont, CA, USA)
T42 sequence (Q8WU08 whole entry): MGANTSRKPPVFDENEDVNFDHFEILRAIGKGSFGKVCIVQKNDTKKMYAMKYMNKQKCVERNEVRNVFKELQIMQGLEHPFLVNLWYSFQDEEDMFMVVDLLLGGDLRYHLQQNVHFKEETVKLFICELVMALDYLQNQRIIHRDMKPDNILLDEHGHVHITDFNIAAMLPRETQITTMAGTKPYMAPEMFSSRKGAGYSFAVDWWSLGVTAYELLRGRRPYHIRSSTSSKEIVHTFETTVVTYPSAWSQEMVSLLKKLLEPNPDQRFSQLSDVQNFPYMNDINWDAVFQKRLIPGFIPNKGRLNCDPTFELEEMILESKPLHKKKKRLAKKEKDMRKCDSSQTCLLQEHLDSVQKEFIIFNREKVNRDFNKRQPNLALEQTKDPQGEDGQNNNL
Experimental: as §1

[43] = molecular target: T43, MYLK (Homo sapiens, UniProt Q15746)
T43 construct: purchased Eurofins DiscoverX (KINOMEscan)
Experimental: as §1

Q: `Brc1ccc2nccc(Nc3ccc4cn[nH]c4c3)c2c1` [Compound 35, 6-Bromo-N-(1H-indazol-6-yl)quinolin-4-amine] was tested. Which activity at 1 µM [1] did it give?
A: 100%

Q: What about the activity at 1 µM [2] of the same compound?
A: 83%

Q: And the activity at 1 µM [3]?
A: 100%

Q: What about the activity at 1 µM [4] of the same compound?
A: 100%

Q: What about the activity at 1 µM [5] of the same compound?
A: 100%

Q: And the activity at 1 µM [6]?
A: 69%

Q: What about the activity at 1 µM [7] of the same compound?
A: 100%

Q: And the activity at 1 µM [8]?
A: 100%

Q: And the activity at 1 µM [9]?
A: 100%

Q: And the activity at 1 µM [10]?
A: 100%

Q: And the activity at 1 µM [11]?
A: 97%

Q: What about the activity at 1 µM [12] of the same compound?
A: 88%

Q: And the activity at 1 µM [13]?
A: 100%

Q: What about the activity at 1 µM [14] of the same compound?
A: 100%

Q: What about the activity at 1 µM [15] of the same compound?
A: 88%

Q: What about the activity at 1 µM [16] of the same compound?
A: 100%

Q: What about the activity at 1 µM [17] of the same compound?
A: 100%

Q: What about the activity at 1 µM [18] of the same compound?
A: 100%

Q: What about the activity at 1 µM [19] of the same compound?
A: 100%

Q: And the activity at 1 µM [20]?
A: 100%

Q: And the activity at 1 µM [21]?
A: 100%

Q: What about the activity at 1 µM [22] of the same compound?
A: 100%

Q: What about the activity at 1 µM [23] of the same compound?
A: 78%

Q: What about the activity at 1 µM [24] of the same compound?
A: 92%

Q: What about the activity at 1 µM [25] of the same compound?
A: 100%

Q: And the activity at 1 µM [26]?
A: 100%

Q: What about the activity at 1 µM [27] of the same compound?
A: 91%

Q: What about the activity at 1 µM [28] of the same compound?
A: 100%

Q: And the activity at 1 µM [29]?
A: 65%

Q: What about the activity at 1 µM [30] of the same compound?
A: 100%

Q: And the activity at 1 µM [31]?
A: 95%

Q: What about the activity at 1 µM [32] of the same compound?
A: 100%

Q: And the activity at 1 µM [33]?
A: 100%

Q: And the activity at 1 µM [34]?
A: 100%

Q: And the activity at 1 µM [35]?
A: 100%

Q: What about the activity at 1 µM [36] of the same compound?
A: 100%

Q: And the activity at 1 µM [37]?
A: 100%

Q: And the activity at 1 µM [38]?
A: 100%

Q: And the activity at 1 µM [39]?
A: 94%

Q: And the activity at 1 µM [40]?
A: 98%

Q: And the activity at 1 µM [41]?
A: 100%

Q: And the activity at 1 µM [42]?
A: 100%

Q: And the activity at 1 µM [43]?
A: 100%

— paper PMC6891286, “Towards the Development of an In vivo Chemical Probe for Cyclin G Associated Kinase (GAK)” (Molecules, 2019)
